In US6939946B2, “Ring modified cyclic peptide analogs” (Eli Lilly and Company, priority 1998, dated 2005):
Where a name gives a salt, the structure may show the parent alone. Bridge positions count the residues as written; N and C are the ends. Square brackets hold non-standard residues; d marks the D form. Peptide text beside a SMILES is read from it. * marks the point of attachment. ξ: configuration not given here. pTerphenylCO(4''-OnC5H11) = CCCCCOc1ccc(-c2ccc(-c3ccc(C(=O)*)cc3)cc2)cc1; Pro(3S-OH,4S-Me) = C[C@H]1CN[C@H](C(=O)O)[C@H]1O; hTyr(3R-OH) = N[C@H](C(=O)O)[C@H](O)Cc1ccc(O)cc1; Hyp = O=C(O)[C@@H]1C[C@@H](O)CN1; Thr(3ξ) = CC(O)[C@H](N)C(=O)O; dOrn = NCCC[C@@H](N)C(=O)O; Orn = NCCC[C@H](N)C(=O)O; Dab = NCC[C@H](N)C(=O)O; ξDap = NCC(N)C(=O)O

Experiments:
Settings in all cases: in vitro
[1] = system: A. fumigatus
[2] = system: C. parapsilosis
[3] = system: Histoplasma capsulatum
[4] = system: C. albicans

For `CCCCCOc1ccc(-c2ccc(-c3ccc(C(=O)N[C@@H]4CS(=O)(=O)CCNC(=O)[C@@H]5[C@H](O)[C@@H](C)CN5C(=O)[C@H]([C@@H](C)O)NC(=O)[C@H]([C@H](O)Cc5ccc(O)cc5)NC(=O)[C@@H]5C[C@@H](O)CN5C(=O)[C@H]([C@@H](C)O)NC4=O)cc3)cc2)cc1` [Compound E3-7], which “Minimal Inhibitory Concentration MIC A. fumigatus” value [1] is on record?
The value was greater than 20 µg/mL.

What about the “Minimal Inhibitory Concentration MIC C. parapsilosis” value [2] of the same compound?
Its value is greater than 20 µg/mL.

What about the “Minimal Inhibitory Concentration MIC Histoplasma capsulatum” value [3] of the same compound?
Its value is greater than 20 µg/mL.

And the “Minimal Inhibitory Concentration MIC C. albicans” value [4]?
The value was greater than 20 µg/mL.

With `CCCCCOc1ccc(-c2ccc(-c3ccc(C(=O)N[C@H]4CCN(C)NC(=O)[C@@H]5[C@@H](O)[C@@H](C)CN5C(=O)[C@H](C(C)O)NC(=O)[C@H]([C@H](O)Cc5ccc(O)cc5)NC(=O)[C@@H]5C[C@@H](O)CN5C(=O)[C@H](C(C)O)NC4=O)cc3)cc2)cc1` (single isomer, unassigned) [E2-11(a) HCl salt] as the compound, how does the “Minimal Inhibitory Concentration MIC A. fumigatus” value [1] read?
Its value is 0.078 µg/mL.

What about the “Minimal Inhibitory Concentration MIC C. parapsilosis” value [2] of the same compound?
Its value is 0.156 µg/mL.

What about the “Minimal Inhibitory Concentration MIC Histoplasma capsulatum” value [3] of the same compound?
Its value is 0.02 µg/mL.

And the “Minimal Inhibitory Concentration MIC C. albicans” value [4]?
Its value is 0.001 µg/mL.

For `CCCCCOc1ccc(-c2ccc(-c3ccc(C(=O)N[C@H]4CCCNC(=O)[C@@H]5[C@@H](O)[C@@H](C)CN5C(=O)[C@H](C(C)O)NC(=O)[C@H]([C@H](O)Cc5ccc(O)cc5)NC(=O)[C@@H]5C[C@@H](O)CN5C(=O)[C@H](Cc5ccc(O)cc5)NC4=O)cc3)cc2)cc1` (stereo partly drawn) [Compound E5-7] ({pTerphenylCO(4''-OnC5H11)}-[Orn]Y[Hyp][hTyr(3R-OH)][Thr(3ξ)][Pro(3S-OH,4S-Me)]; lactam 1-C), which “Minimal Inhibitory Concentration MIC A. fumigatus” value [1] is on record?
Its value is greater than 20 µg/mL.

And the “Minimal Inhibitory Concentration MIC C. parapsilosis” value [2]?
Its value is greater than 20 µg/mL.

And the “Minimal Inhibitory Concentration MIC Histoplasma capsulatum” value [3]?
Its value is greater than 20 µg/mL.

And the “Minimal Inhibitory Concentration MIC C. albicans” value [4]?
The value was greater than 20 µg/mL.

With `CCCCCOc1ccc(-c2ccc(-c3ccc(C(=O)NC4CNC(=O)[C@@H]5[C@@H](O)[C@@H](C)CN5C(=O)[C@H](C(C)O)NC(=O)[C@H]([C@H](O)Cc5ccc(O)cc5)NC(=O)[C@@H]5C[C@@H](O)CN5C(=O)[C@H](C(C)O)NC4=O)cc3)cc2)cc1` (stereo partly drawn) [Compound E1-7] ({pTerphenylCO(4''-OnC5H11)}-[ξDap][Thr(3ξ)][Hyp][hTyr(3R-OH)][Thr(3ξ)][Pro(3S-OH,4S-Me)]; lactam 1-C) as the compound, how does the “Minimal Inhibitory Concentration MIC A. fumigatus” value [1] read?
The value was 0.625 µg/mL.

What about the “Minimal Inhibitory Concentration MIC C. parapsilosis” value [2] of the same compound?
Its value is greater than 20 µg/mL.

What about the “Minimal Inhibitory Concentration MIC Histoplasma capsulatum” value [3] of the same compound?
Its value is 0.625 µg/mL.

And the “Minimal Inhibitory Concentration MIC C. albicans” value [4]?
Its value is 0.312 µg/mL.

With `CCCCCOc1ccc(-c2ccc(-c3ccc(C(=O)N[C@H]4CCN(C(=O)C(N)CN)NC(=O)[C@@H]5[C@@H](O)[C@@H](C)CN5C(=O)[C@H](C(C)O)NC(=O)[C@H]([C@H](O)Cc5ccc(O)cc5)NC(=O)[C@@H]5C[C@@H](O)CN5C(=O)[C@H](C(C)O)NC4=O)cc3)cc2)cc1` (single isomer, unassigned) [E2-13 (isomer 2)] as the compound, how does the “Minimal Inhibitory Concentration MIC A. fumigatus” value [1] read?
The value was 1.25 µg/mL.

And the “Minimal Inhibitory Concentration MIC C. parapsilosis” value [2]?
The value was 20 µg/mL.

What about the “Minimal Inhibitory Concentration MIC Histoplasma capsulatum” value [3] of the same compound?
The value was 10 µg/mL.

What about the “Minimal Inhibitory Concentration MIC C. albicans” value [4] of the same compound?
Its value is 0.156 µg/mL.

For `CCCCCOc1ccc(-c2ccc(-c3ccc(C(=O)N[C@H]4CCN(CC)NC(=O)[C@@H]5[C@@H](O)[C@@H](C)CN5C(=O)[C@H](C(C)O)NC(=O)[C@H]([C@H](O)Cc5ccc(O)cc5)NC(=O)[C@@H]5C[C@@H](O)CN5C(=O)[C@H](C(C)O)NC4=O)cc3)cc2)cc1` (stereo partly drawn) [E2-11(b)], which “Minimal Inhibitory Concentration MIC A. fumigatus” value [1] is on record?
Its value is 0.312 µg/mL.

And the “Minimal Inhibitory Concentration MIC C. parapsilosis” value [2]?
Its value is 0.156 µg/mL.

What about the “Minimal Inhibitory Concentration MIC Histoplasma capsulatum” value [3] of the same compound?
Its value is 0.02 µg/mL.

What about the “Minimal Inhibitory Concentration MIC C. albicans” value [4] of the same compound?
The value was 0.001 µg/mL.

What does the source list for `CCCCCOc1ccc(-c2ccc(-c3ccc(C(=O)N[C@H]4CCCNC(=O)[C@@H]5[C@@H](O)[C@@H](C)CN5C(=O)[C@H](C(C)O)NC(=O)[C@H]([C@H](O)Cc5ccc(O)cc5)NC(=O)[C@@H]5C[C@@H](O)CN5C(=O)[C@H](C(C)C)NC4=O)cc3)cc2)cc1` (stereo partly drawn) [Compound E4-6] ({pTerphenylCO(4''-OnC5H11)}-[Orn]V[Hyp][hTyr(3R-OH)][Thr(3ξ)][Pro(3S-OH,4S-Me)]; lactam 1-C)?
Minimal Inhibitory Concentration MIC A. fumigatus [1]: >20 µg/mL; Minimal Inhibitory Concentration MIC C. parapsilosis [2]: >20 µg/mL; Minimal Inhibitory Concentration MIC Histoplasma capsulatum [3]: >20 µg/mL; Minimal Inhibitory Concentration MIC C. albicans [4]: 1.25 µg/mL

`CCCCCOc1ccc(-c2ccc(-c3ccc(C(=O)N[C@H]4CCN(C)NC(=O)[C@@H]5[C@@H](O)[C@@H](C)CN5C(=O)[C@H](C(C)O)NC(=O)[C@H]([C@H](O)Cc5ccc(O)cc5)NC(=O)[C@@H]5C[C@@H](O)CN5C(=O)[C@H](C(C)O)NC4=O)cc3)cc2)cc1` (single isomer, unassigned) [E2-11(a) TFA salt] was tested. Which “Minimal Inhibitory Concentration MIC A. fumigatus” value [1] did it give?
The value was 0.039 µg/mL.

And the “Minimal Inhibitory Concentration MIC C. parapsilosis” value [2]?
The value was 0.156 µg/mL.

What about the “Minimal Inhibitory Concentration MIC Histoplasma capsulatum” value [3] of the same compound?
The value was 0.78 µg/mL.

And the “Minimal Inhibitory Concentration MIC C. albicans” value [4]?
Its value is 0.005 µg/mL.

Which “Minimal Inhibitory Concentration MIC A. fumigatus” value [1] does the source give for `CCCCCOc1ccc(-c2ccc(-c3ccc(C(=O)N[C@H]4CCN(C(=O)C(N)CN)NC(=O)[C@@H]5[C@@H](O)[C@@H](C)CN5C(=O)[C@H](C(C)O)NC(=O)[C@H]([C@H](O)Cc5ccc(O)cc5)NC(=O)[C@@H]5C[C@@H](O)CN5C(=O)[C@H](C(C)O)NC4=O)cc3)cc2)cc1` (single isomer, unassigned) [E2-13 (isomer 1)] here?
The value was 0.625 µg/mL.

What about the “Minimal Inhibitory Concentration MIC C. parapsilosis” value [2] of the same compound?
The value was 2.5 µg/mL.

What about the “Minimal Inhibitory Concentration MIC Histoplasma capsulatum” value [3] of the same compound?
The value was 1.25 µg/mL.

What about the “Minimal Inhibitory Concentration MIC C. albicans” value [4] of the same compound?
Its value is 0.078 µg/mL.

What does the source list for `CCCCCOc1ccc(-c2ccc(-c3ccc(C(=O)N[C@H]4CCCCNC(=O)[C@@H]5[C@@H](O)[C@@H](C)CN5C(=O)[C@H](C(C)O)NC(=O)[C@H]([C@H](O)Cc5ccc(O)cc5)NC(=O)[C@@H]5C[C@@H](O)CN5C(=O)[C@H](C(C)O)NC4=O)cc3)cc2)cc1` (stereo partly drawn) [Compound E1-5] ({pTerphenylCO(4''-OnC5H11)}-K[Thr(3ξ)][Hyp][hTyr(3R-OH)][Thr(3ξ)][Pro(3S-OH,4S-Me)]; lactam 1-C)?
Minimal Inhibitory Concentration MIC A. fumigatus [1]: 2.5 µg/mL; Minimal Inhibitory Concentration MIC C. parapsilosis [2]: >20 µg/mL; Minimal Inhibitory Concentration MIC Histoplasma capsulatum [3]: 0.156 µg/mL; Minimal Inhibitory Concentration MIC C. albicans [4]: 0.02 µg/mL

`CCCCCOc1ccc(-c2ccc(-c3ccc(C(=O)N[C@@H]4CCCNC(=O)[C@@H]5[C@@H](O)[C@@H](C)CN5C(=O)[C@H](C(C)O)NC(=O)[C@H]([C@H](O)Cc5ccc(O)cc5)NC(=O)[C@@H]5C[C@@H](O)CN5C(=O)[C@H](C(C)O)NC4=O)cc3)cc2)cc1` (stereo partly drawn) [Compound E1-4] ({pTerphenylCO(4''-OnC5H11)}-[dOrn][Thr(3ξ)][Hyp][hTyr(3R-OH)][Thr(3ξ)][Pro(3S-OH,4S-Me)]; lactam 1-C) was tested. Which “Minimal Inhibitory Concentration MIC A. fumigatus” value [1] did it give?
Its value is 20.0 µg/mL.

And the “Minimal Inhibitory Concentration MIC C. parapsilosis” value [2]?
Its value is greater than 20 µg/mL.

And the “Minimal Inhibitory Concentration MIC Histoplasma capsulatum” value [3]?
Its value is 5.0 µg/mL.

What about the “Minimal Inhibitory Concentration MIC C. albicans” value [4] of the same compound?
Its value is 1.25 µg/mL.

With `CCCCCOc1ccc(-c2ccc(-c3ccc(C(=O)N[C@H]4CCNC(=O)[C@@H]5[C@@H](O)[C@@H](C)CN5C(=O)[C@H](C(C)O)NC(=O)[C@H]([C@H](O)Cc5ccc(O)cc5)NC(=O)[C@@H]5C[C@@H](O)CN5C(=O)[C@H](C(C)O)NC4=O)cc3)cc2)cc1` (stereo partly drawn) [Compound E1-6] ({pTerphenylCO(4''-OnC5H11)}-[Dab][Thr(3ξ)][Hyp][hTyr(3R-OH)][Thr(3ξ)][Pro(3S-OH,4S-Me)]; lactam 1-C) as the compound, how does the “Minimal Inhibitory Concentration MIC A. fumigatus” value [1] read?
The value was 20 µg/mL.

What about the “Minimal Inhibitory Concentration MIC C. parapsilosis” value [2] of the same compound?
Its value is greater than 20 µg/mL.

What about the “Minimal Inhibitory Concentration MIC Histoplasma capsulatum” value [3] of the same compound?
The value was 0.078 µg/mL.

And the “Minimal Inhibitory Concentration MIC C. albicans” value [4]?
The value was 0.039 µg/mL.
